In ChEMBL document CHEMBL1201862, “PubChem BioAssay data set” (2004):
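Protocol summary: plate cells (96-well), add compound at 5 concentrations, incubate 48 h, interpolate endpoints linearly. Abbreviation: GI50, concentration required for 50% inhibition of growth.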 The source made the active and inactive calls. No stated cut-off is given here; in the data, active = GI50 up to about 1.1 µM and inactive = higher. Where a SMILES comes first, the peptide text is derived from it. The star is where a group is joined. Boc = CC(C)(C)OC(=O)*; OBn = c1ccc(CO*)cc1

How the values were obtained:
Assay in all cases: NCI anticancer screen, dose series, 48 h
SF-295 = system: SF-295
NCI-H23 = system: NCI-H23
BT-549 = system: BT-549
M14 = system: M14
SF-539 = system: SF-539
DU-145 = system: DU-145
HCC 2998 = system: HCC 2998
NCI-H226 = system: NCI-H226
TK-10 = system: TK-10
SW-620 = system: SW-620
OVCAR-8 = system: OVCAR-8
NCI-H460 = system: NCI-H460
CAKI-1 = system: CAKI-1
SF-268 = system: SF-268
A498 = system: A498
SK-MEL-28 = system: SK-MEL-28
HOP-62 = system: HOP-62
SR = system: SR
CCRF-CEM = system: CCRF-CEM

SMILES	GI50 (SF-295)	GI50 (NCI-H23)	GI50 (BT-549)	GI50 (M14)	GI50 (SF-539)	GI50 (DU-145)	GI50 (HCC 2998)	GI50 (NCI-H226)	GI50 (TK-10)	GI50 (SW-620)	GI50 (OVCAR-8)	GI50 (NCI-H460)	GI50 (CAKI-1)	GI50 (SF-268)	GI50 (A498)	GI50 (SK-MEL-28)	GI50 (HOP-62)	GI50 (SR)	GI50 (CCRF-CEM)
Clc1ccc(OCc2nnc(CCCCCCCCc3nnc(COc4ccc(Cl)cc4)n3Nc3ccccc3)n2Nc2ccccc2)cc1	0.145 µM (active)	18.2 µM (inactive)	11.6 µM (inactive)	2.08 µM (inactive)	0.962 µM (active)	19.1 µM (inactive)	12.2 µM (inactive)	9.62 µM (inactive)	23.7 µM (inactive)	16.9 µM (inactive)	30.4 µM (inactive)	2.71 µM (inactive)	0.531 µM (active)	12.8 µM (inactive)	62.5 µM (inactive)	4.62 µM (inactive)	1.08 µM (active)	–	–
Cn1c(=O)c2c(-c3ccccc3)onc2n(C)c1=O	40.7 µM (inactive)	14 µM (inactive)	17.2 µM (inactive)	16.9 µM (inactive)	37.9 µM (inactive)	–	32.7 µM (inactive)	> 100 µM (inactive)	14.4 µM (inactive)	26.6 µM (inactive)	24 µM (inactive)	35.9 µM (inactive)	42.1 µM (inactive)	35.2 µM (inactive)	64.1 µM (inactive)	–	17.1 µM (inactive)	36.6 µM (inactive)	22.4 µM (inactive)
C/C(=N\NC1=NCCN1)c1cn(C2=NCCN2)nc1C	> 100 µM (inactive)	> 100 µM (inactive)	> 100 µM (inactive)	> 100 µM (inactive)	> 100 µM (inactive)	> 100 µM (inactive)	> 100 µM (inactive)	> 100 µM (inactive)	> 100 µM (inactive)	> 100 µM (inactive)	> 100 µM (inactive)	> 100 µM (inactive)	> 100 µM (inactive)	> 100 µM (inactive)	> 100 µM (inactive)	> 100 µM (inactive)	> 100 µM (inactive)	–	–
CC(=O)CN/C(C)=N/Nc1ccc([N+](=O)[O-])cc1[N+](=O)[O-]	> 100 µM (inactive)	> 100 µM (inactive)	–	> 100 µM (inactive)	> 100 µM (inactive)	> 100 µM (inactive)	> 100 µM (inactive)	> 100 µM (inactive)	–	> 100 µM (inactive)	> 100 µM (inactive)	> 100 µM (inactive)	15.3 µM (inactive)	> 100 µM (inactive)	78.3 µM (inactive)	> 100 µM (inactive)	> 100 µM (inactive)	> 100 µM (inactive)	> 100 µM (inactive)
C/C(=N\Nc1nc2cc(Cl)ccc2s1)c1ccccn1	0.914 µM (active)	0.403 µM (active)	4.9 µM (inactive)	0.443 µM (active)	1.21 µM (inactive)	–	11.5 µM (inactive)	0.32 µM (active)	2.74 µM (inactive)	0.817 µM (active)	0.177 µM (active)	0.673 µM (active)	0.0653 µM (active)	0.365 µM (active)	1.61 µM (inactive)	2.56 µM (inactive)	0.904 µM (active)	0.228 µM (active)	0.373 µM (active)
O=C(O)CC1NC(/C(=C/c2ccccc2O)NC(=O)c2ccccc2)OC1=O (stereo unspecified)	26.6 µM (inactive)	26.1 µM (inactive)	13.9 µM (inactive)	> 78 µM (inactive)	22.3 µM (inactive)	> 79.6 µM (inactive)	> 40.4 µM (inactive)	17 µM (inactive)	61 µM (inactive)	> 100 µM (inactive)	27.3 µM (inactive)	> 58.7 µM (inactive)	> 56.1 µM (inactive)	> 23.3 µM (inactive)	> 75 µM (inactive)	> 100 µM (inactive)	14 µM (inactive)	–	> 100 µM (inactive)
O=C(O)CCNS(=O)(=O)c1ccc(NC(=O)c2ccccc2)cc1	> 100 µM (inactive)	> 100 µM (inactive)	–	> 100 µM (inactive)	> 100 µM (inactive)	–	> 100 µM (inactive)	–	> 100 µM (inactive)	> 100 µM (inactive)	> 100 µM (inactive)	> 100 µM (inactive)	> 100 µM (inactive)	> 100 µM (inactive)	> 100 µM (inactive)	> 100 µM (inactive)	–	–	> 100 µM (inactive)
COc1ccc(Cn2nc(OCc3ccccc3)c3cc([N+](=O)[O-])ccc32)cc1	> 100 µM (inactive)	> 100 µM (inactive)	–	> 100 µM (inactive)	> 100 µM (inactive)	> 100 µM (inactive)	99.3 µM (inactive)	> 100 µM (inactive)	> 100 µM (inactive)	> 100 µM (inactive)	> 100 µM (inactive)	> 100 µM (inactive)	–	> 100 µM (inactive)	> 100 µM (inactive)	> 100 µM (inactive)	> 100 µM (inactive)	> 100 µM (inactive)	> 100 µM (inactive)
COC(=O)C1(Cc2ccccc2)Cc2ccccc2C1	36.5 µM (inactive)	23.2 µM (inactive)	–	17.1 µM (inactive)	50.9 µM (inactive)	30.8 µM (inactive)	29.6 µM (inactive)	25.6 µM (inactive)	21.2 µM (inactive)	35 µM (inactive)	22.8 µM (inactive)	25.5 µM (inactive)	18.5 µM (inactive)	23.1 µM (inactive)	–	26.9 µM (inactive)	32.1 µM (inactive)	24.4 µM (inactive)	15.5 µM (inactive)
O=C(Sc1c(-c2ccccc2)c(=O)n(-c2ccccc2)c(=S)n1-c1ccccc1)c1cccs1	61 µM (inactive)	> 100 µM (inactive)	> 100 µM (inactive)	53.6 µM (inactive)	–	> 100 µM (inactive)	–	> 100 µM (inactive)	> 100 µM (inactive)	24.6 µM (inactive)	73.3 µM (inactive)	> 100 µM (inactive)	> 100 µM (inactive)	> 100 µM (inactive)	–	> 100 µM (inactive)	> 100 µM (inactive)	38.4 µM (inactive)	11.8 µM (inactive)
CN(C)CC1COC2Cc3ccccc3C1O2 (stereo unspecified)	> 100 µM (inactive)	> 100 µM (inactive)	–	> 100 µM (inactive)	> 100 µM (inactive)	> 100 µM (inactive)	> 100 µM (inactive)	> 100 µM (inactive)	> 100 µM (inactive)	–	> 100 µM (inactive)	> 100 µM (inactive)	> 100 µM (inactive)	> 100 µM (inactive)	> 100 µM (inactive)	> 100 µM (inactive)	> 100 µM (inactive)	> 100 µM (inactive)	> 100 µM (inactive)
COc1cc([N+](=O)[O-])c(S(=O)(=O)[O-])cc1-[n+]1nc(C(=O)Nc2ccccc2)nn1-c1ccc([N+](=O)[O-])c(S(=O)(=O)O)c1	> 100 µM (inactive)	> 100 µM (inactive)	–	> 100 µM (inactive)	> 100 µM (inactive)	> 100 µM (inactive)	> 100 µM (inactive)	> 100 µM (inactive)	> 100 µM (inactive)	> 100 µM (inactive)	–	> 100 µM (inactive)	> 100 µM (inactive)	> 100 µM (inactive)	–	> 100 µM (inactive)	> 100 µM (inactive)	> 100 µM (inactive)	> 100 µM (inactive)
CC(N)Cc1ccc(Cl)cc1 (stereo unspecified)	47.9 µM (inactive)	39.5 µM (inactive)	–	> 100 µM (inactive)	> 100 µM (inactive)	–	> 100 µM (inactive)	> 100 µM (inactive)	> 100 µM (inactive)	> 100 µM (inactive)	> 100 µM (inactive)	50 µM (inactive)	> 100 µM (inactive)	> 100 µM (inactive)	> 100 µM (inactive)	> 100 µM (inactive)	> 100 µM (inactive)	> 100 µM (inactive)	61.2 µM (inactive)
CN(C)CCCNc1ccc2c(=O)n(CCN(C)C)c(=O)n3c4ccccc4c(=O)c1c23	0.245 µM (active)	0.236 µM (active)	–	0.394 µM (active)	0.486 µM (active)	0.124 µM (active)	0.112 µM (active)	0.368 µM (active)	0.518 µM (active)	0.0637 µM (active)	0.22 µM (active)	0.0335 µM (active)	0.211 µM (active)	0.603 µM (active)	0.309 µM (active)	0.628 µM (active)	0.351 µM (active)	0.022 µM (active)	0.132 µM (active)
CC(C)(C)OC(=O)NC(Cc1ccccc1)C(=O)NC(Cc1ccccc1)C(=O)NCC(=O)OCc1ccccc1 (stereo not drawn) (Boc-Phe-Phe-Gly-OBn; configuration not given here)	> 10 µM (inactive)	22.8 µM (inactive)	–	20.8 µM (inactive)	19 µM (inactive)	17.9 µM (inactive)	16.3 µM (inactive)	–	19.7 µM (inactive)	12.8 µM (inactive)	30.1 µM (inactive)	23 µM (inactive)	57.4 µM (inactive)	15.3 µM (inactive)	> 100 µM (inactive)	23.3 µM (inactive)	31.1 µM (inactive)	18.4 µM (inactive)	16.4 µM (inactive)
C[C@H](CCC(=O)O)[C@H]1CC[C@H]2[C@@H]3CC[C@@H]4C[C@H](O)CC[C@]4(C)[C@H]3C[C@H](O)[C@]12C [DEOXYCHOLIC ACID]	17.8 µM (inactive)	39.7 µM (inactive)	48.4 µM (inactive)	34.3 µM (inactive)	48 µM (inactive)	65.6 µM (inactive)	61.2 µM (inactive)	95.1 µM (inactive)	> 100 µM (inactive)	47.8 µM (inactive)	39.4 µM (inactive)	40.7 µM (inactive)	69.5 µM (inactive)	40.1 µM (inactive)	41.2 µM (inactive)	63.1 µM (inactive)	26.4 µM (inactive)	–	23.9 µM (inactive)
